Like-named read-outs stand apart in the source and are kept apart here. Where a SMILES comes first, the peptide text is derived from it. Bridges are numbered along the chain shown (N, C = ends). Where no end group is shown, it is not given here. [ ]: non-standard residue; d: D form. The star is where a group is joined. Palmitoyl = CCCCCCCCCCCCCCCC(=O)*; Phg = N[C@H](C(=O)O)c1ccccc1; Nle = CCCC[C@H](N)C(=O)O; Aib = CC(C)(N)C(=O)O Bounds are passed on as bounds.

Results on eight compounds are retold here after patent US9453062B2, “Glucose dependent insulinotropic polypeptide analogs, pharmaceutical compositions and use thereof” (Beijing Hanmi Pharmaceutical Co., Ltd., priority 2011, dated 2016).

One test has as its target T1, hGIPR (Homo sapiens, UniProt P48546).
T1 construct: expressed in transfected cells; host or cells: CHO
T1 sequence (P48546 22-466): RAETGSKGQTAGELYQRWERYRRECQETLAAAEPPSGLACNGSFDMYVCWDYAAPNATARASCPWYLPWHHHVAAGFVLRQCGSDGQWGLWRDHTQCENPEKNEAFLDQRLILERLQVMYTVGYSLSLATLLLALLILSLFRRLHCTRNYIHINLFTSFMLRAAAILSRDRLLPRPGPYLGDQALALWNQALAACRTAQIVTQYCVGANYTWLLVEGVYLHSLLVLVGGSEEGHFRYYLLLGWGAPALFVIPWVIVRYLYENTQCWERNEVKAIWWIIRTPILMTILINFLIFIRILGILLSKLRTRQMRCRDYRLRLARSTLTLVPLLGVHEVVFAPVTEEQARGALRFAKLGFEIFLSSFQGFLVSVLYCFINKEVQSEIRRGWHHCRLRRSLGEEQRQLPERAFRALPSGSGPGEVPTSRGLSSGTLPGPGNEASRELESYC
Put plainly: hGIPR-mediated cAMP induction assay in CHO cell line. The format is cell-based. As to conditions: Table 3; for EC50: CHO hGIPR cells; for GIP Receptor Relative Potency: against native GIP.

The target of a further test is T2, hGLP-1R (Homo sapiens, UniProt P43220).
T2 construct: expressed in transfected cells; host or cells: CHO
T2 sequence (P43220 24-463): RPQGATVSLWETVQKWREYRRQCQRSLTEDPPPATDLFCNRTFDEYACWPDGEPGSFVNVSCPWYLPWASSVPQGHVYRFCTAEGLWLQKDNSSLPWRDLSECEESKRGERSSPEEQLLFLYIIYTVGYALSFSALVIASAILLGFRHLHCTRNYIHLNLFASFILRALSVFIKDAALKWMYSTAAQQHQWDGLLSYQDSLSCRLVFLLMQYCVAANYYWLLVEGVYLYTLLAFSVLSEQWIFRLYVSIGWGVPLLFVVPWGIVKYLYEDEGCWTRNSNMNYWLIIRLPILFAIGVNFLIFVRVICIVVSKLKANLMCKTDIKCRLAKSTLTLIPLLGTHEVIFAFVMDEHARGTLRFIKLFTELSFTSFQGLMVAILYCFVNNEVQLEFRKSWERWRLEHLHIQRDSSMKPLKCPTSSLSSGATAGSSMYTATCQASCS
Put plainly: hGLP-1R-mediated cAMP induction assay in CHO cell line.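 As to all read-outs here: CHO cells expressing human GLP-1R, treated 30 min at 37 °C, intracellular cAMP measured by competitive fluorescent immunoassay and converted via a cAMP standard curve.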 The format is cell-based. As to conditions: for GLP-1 Receptor Relative Potency: against native GLP-1.

Source text for hGLP-1R: The cAMP in the sample or standard competes with horseradish peroxidase (HRP)-labeled cAMP conjugate for binding sites on the anti-cAMP antibodies. In the absence of cAMP, most of the HRP-cAMP conjugate is bound to the antibody. Increasing concentrations of cAMP competitively decrease the amount of bound conjugate, thus decreasing measured HRP activity.
Assay kit: CatchPoint™ Cyclic-AMP Fluorescent Assay Kit (Molecular Devices, Product # R8088)
Cell lines: CHO hGLP1R, CHO hGIPR
Cell seeding: CHO hGLP1R or CHO hGIPR cells: 10,000 cells/well/100 uL at 37° C. 5% CO2 overnight.
Gently aspirate off media and wash the cells with KRBG Buffer, 100 uL/well.
Incubate the plate for 10 min at room temperature. Then add the KRBG buffer with 3× final concentration of the tested samples (5-foled series diluted from 5,000 nM), 50 uL/well. Incubate the plate at 37° C. 5% CO2 for 30 min.
Add 50 uL of Lysis buffer to each well and put the plate on a shaker for 10 min.
Place 40 uL of samples and analyze in appropriate wells. And test the cAMP concentration in each sample by following the manufacture's instruction.
Detect the fluorescence signal at Ex: 490 nm and Em: 530 nm. Transfer the FI signal to cAMP concentration by the cAMP standard curve. The Dose-response curve and EC50 were obtained by logistic fitting of Origin 8.

In the case of `CC[C@H](C)[C@H](NC(=O)[C@H](Cc1ccccc1)NC(=O)[C@H](CCC(=O)O)NC(=O)[C@H](CCCNC(=N)N)NC(=O)[C@@H](NC(=O)[C@H](C)NC(=O)[C@H](CCC(=O)O)NC(=O)[C@H](CCCCN)NC(=O)[C@H](CCC(=O)O)NC(=O)[C@H](CCSC)NC(=O)[C@H](Cc1ccc(O)cc1)NC(=O)[C@@H](NC(=O)[C@H](CO)NC(=O)[C@H](Cc1ccc(O)cc1)NC(=O)[C@H](CC(=O)O)NC(=O)[C@H](CO)NC(=O)[C@@H](NC(=O)[C@H](Cc1ccccc1)NC(=O)[C@@H](NC(=O)CNC(=O)[C@H](CCC(=O)O)NC(=O)C(C)(C)NC(=O)[C@@H](N)Cc1ccc(O)cc1)[C@@H](C)O)[C@@H](C)O)[C@@H](C)CC)C(C)C)C(=O)N[C@@H](C)C(=O)N[C@@H](Cc1c[nH]c2ccccc12)C(=O)N[C@@H](CC(C)C)C(=O)N[C@H](C(=O)N[C@@H](CCCCN)C(=O)NCC(=O)NCC(=O)N1CCC[C@H]1C(=O)N[C@@H](CO)C(=O)N[C@@H](CO)C(=O)NCC(=O)N[C@@H](C)C(=O)N1CCC[C@H]1C(=O)N1CCC[C@H]1C(=O)N1CCC[C@H]1C(=O)N[C@@H](CO)C(N)=O)C(C)C` [Compound 051] (H-Y[Aib]EGTFTSDYSIYMEKEAVREFIAWLVKGGPSSGAPPPS-NH2; N-terminus assumed), at hGIPR, the midpoint of the response, the EC50, lay at 0.19 nM and the “GIP Receptor Relative Potency” value stood at 89.5. Besides, the response on hGLP-1R (Table 3, CHO hGLP1R cells) was half-maximal at 0.599 nM (EC50). The “GLP-1 Receptor Relative Potency” value on hGLP-1R (Table 3) was found to be 159.8.
On to `CC[C@H](C)[C@H](NC(=O)[C@H](Cc1ccccc1)NC(=O)[C@H](CCC(=O)O)NC(=O)[C@H](CCCNC(=N)N)NC(=O)[C@@H](NC(=O)[C@H](C)NC(=O)[C@H](CCC(=O)O)NC(=O)[C@H](CCCCN)NC(=O)[C@H](CCC(=O)O)NC(=O)[C@H](CCSC)NC(=O)[C@H](Cc1ccc(O)cc1)NC(=O)[C@@H](NC(=O)[C@H](CO)NC(=O)[C@H](Cc1ccc(O)cc1)NC(=O)[C@H](CC(=O)O)NC(=O)[C@H](CO)NC(=O)[C@@H](NC(=O)[C@H](Cc1ccccc1)NC(=O)[C@@H](NC(=O)CNC(=O)[C@H](CCC(=O)O)NC(=O)C(C)(C)NC(=O)[C@@H](N)Cc1ccc(O)cc1)[C@@H](C)O)[C@@H](C)O)[C@@H](C)CC)C(C)C)C(=O)N[C@@H](C)C(=O)N[C@@H](Cc1c[nH]c2ccccc12)C(=O)N[C@@H](CC(C)C)C(=O)N[C@H](C(=O)N[C@@H](CCCCN)C(=O)NCC(=O)NCC(=O)N1CCC[C@H]1C(=O)N[C@@H](CO)C(=O)N[C@@H](CO)C(=O)NCC(=O)N[C@@H](C)C(=O)N1CCC[C@H]1C(=O)N1CCC[C@H]1C(=O)N1CCC[C@H]1C(=O)N[C@@H](CO)C(=O)N[C@@H](CCCCNC(=O)CCCC[C@@H]1SC[C@@H]2NC(=O)N[C@@H]21)C(N)=O)C(C)C` [Compound 074], for which, on hGIPR, the EC50 worked out at 0.43 nM and the “GIP Receptor Relative Potency” value is reported as 39.5. The EC50 at hGLP-1R (Table 3, CHO hGLP1R cells) was found to be 1.05 nM. The “GLP-1 Receptor Relative Potency” value at hGLP-1R (Table 3) is 90.7.
“Y[Aib]EGTFTSDYSIYMEKEAVREFIAWLVKGGPSSGAPPPSKKKKKK-NH2 [Compound 071]”: the EC50 at hGIPR came out at 0.77 nM; at hGLP-1R (Table 3, CHO hGLP1R cells), 3.8 nM. The “GIP Receptor Relative Potency” value on hGIPR was found to be 22.1. For the same compound, at hGLP-1R (Table 3), the “GLP-1 Receptor Relative Potency” value was determined as 25.1.
For the compound `CCCCCCCCCCCCCCCC(=O)NCCCC[C@H](NC(=O)[C@H](CO)NC(=O)[C@@H]1CCCN1C(=O)[C@@H]1CCCN1C(=O)[C@@H]1CCCN1C(=O)[C@H](C)NC(=O)CNC(=O)[C@H](CO)NC(=O)[C@H](CO)NC(=O)[C@@H]1CCCN1C(=O)CNC(=O)CNC(=O)[C@H](CCCCN)NC(=O)[C@@H](NC(=O)[C@H](CC(C)C)NC(=O)[C@H](Cc1c[nH]c2ccccc12)NC(=O)[C@@H]1CCC(=O)NCCCC[C@H](NC(=O)[C@@H](NC(=O)[C@H](C)NC(=O)[C@H](CCC(=O)O)NC(=O)[C@H](CCCCN)NC(=O)[C@H](CCC(=O)O)NC(=O)[C@H](CCSC)NC(=O)[C@H](Cc2ccc(O)cc2)NC(=O)[C@@H](NC(=O)[C@H](CO)NC(=O)[C@H](Cc2ccc(O)cc2)NC(=O)[C@H](CC(=O)O)NC(=O)[C@H](CO)NC(=O)[C@@H](NC(=O)[C@H](Cc2ccccc2)NC(=O)[C@@H](NC(=O)CNC(=O)[C@H](CCC(=O)O)NC(=O)C(C)(C)NC(=O)[C@@H](N)Cc2ccc(O)cc2)[C@@H](C)O)[C@@H](C)O)[C@@H](C)CC)C(C)C)C(=O)N[C@@H](CCC(=O)O)C(=O)N[C@@H](Cc2ccccc2)C(=O)N[C@@H]([C@@H](C)CC)C(=O)N1)C(C)C)C(N)=O` [Compound 101] (H-Y[Aib]EGTFTSDYSIYMEKEAVKEFIEWLVKGGPSSGAPPPSK(Palmitoyl)-NH2; lactam 20-24), at hGIPR, the EC50 amounted to 0.021 nM and the “GIP Receptor Relative Potency” value is 328.6. This compound also had an EC50 on hGLP-1R (Table 3, CHO hGLP1R cells) of 0.056 nM. The “GLP-1 Receptor Relative Potency” value at hGLP-1R (Table 3) is listed as 628.6.
On the same counts, the results for `CCCCCCCCCCCCCCCC(=O)N[C@@H](CCC(=O)NCCCC[C@H](NC(=O)[C@H](CO)NC(=O)[C@@H]1CCCN1C(=O)[C@@H]1CCCN1C(=O)[C@@H]1CCCN1C(=O)[C@H](C)NC(=O)CNC(=O)[C@H](CO)NC(=O)[C@H](CO)NC(=O)[C@@H]1CCCN1C(=O)CNC(=O)CNC(=O)[C@H](CCCCN)NC(=O)[C@@H](NC(=O)[C@H](CC(C)C)NC(=O)[C@H](Cc1c[nH]c2ccccc12)NC(=O)[C@H](C)NC(=O)[C@@H](NC(=O)[C@H](Cc1ccccc1)NC(=O)[C@H](CCC(=O)O)NC(=O)[C@H](CCCNC(=N)N)NC(=O)[C@@H](NC(=O)[C@H](C)NC(=O)[C@H](CCC(=O)O)NC(=O)[C@H](CCCCN)NC(=O)[C@H](CCC(=O)O)NC(=O)[C@H](CCSC)NC(=O)[C@H](Cc1ccc(O)cc1)NC(=O)[C@@H](NC(=O)[C@H](CO)NC(=O)[C@H](Cc1ccc(O)cc1)NC(=O)[C@H](CC(=O)O)NC(=O)[C@H](CO)NC(=O)[C@@H](NC(=O)[C@H](Cc1ccccc1)NC(=O)[C@@H](NC(=O)CNC(=O)[C@H](CCC(=O)O)NC(=O)C(C)(C)NC(=O)[C@@H](N)Cc1ccc(O)cc1)[C@@H](C)O)[C@@H](C)O)[C@@H](C)CC)C(C)C)[C@@H](C)CC)C(C)C)C(N)=O)C(=O)O` [Compound 090] are 0.009 nM, 1311, 0.188 nM and 568.6.
For `CC[C@H](C)[C@H](NC(=O)[C@H](Cc1ccccc1)NC(=O)[C@H](CCC(=O)O)NC(=O)[C@H](CCCNC(=N)N)NC(=O)[C@@H](NC(=O)[C@H](C)NC(=O)[C@H](CCC(=O)O)NC(=O)[C@@H]1CCCCNC(=O)CC[C@H](NC(=O)[C@H](CO)NC(=O)[C@H](Cc2ccc(O)cc2)NC(=O)[C@H](CC(=O)O)NC(=O)[C@H](CO)NC(=O)[C@@H](NC(=O)[C@H](Cc2ccccc2)NC(=O)[C@@H](NC(=O)CNC(=O)[C@H](CCC(=O)O)NC(=O)C(C)(C)NC(=O)[C@@H](N)Cc2ccc(O)cc2)[C@@H](C)O)[C@@H](C)O)C(=O)N[C@@H](Cc2ccc(O)cc2)C(=O)N[C@@H](CCSC)C(=O)N[C@@H](CCC(=O)O)C(=O)N1)C(C)C)C(=O)N[C@@H](C)C(=O)N[C@@H](Cc1c[nH]c2ccccc12)C(=O)N[C@@H](CC(C)C)C(=O)N[C@H](C(=O)N[C@@H](CCCCN)C(=O)NCC(N)=O)C(C)C` [Compound 052-2] (H-Y[Aib]EGTFTSDYSEYMEKEAVREFIAWLVKG-NH2; lactam 12-16), at hGIPR, the “GIP Receptor Relative Potency” value came out at 146.8. Besides, at hGLP-1R (Table 3), the “GLP-1 Receptor Relative Potency” value is given as 132.8.
On to `CCCCCCCCCCCCCCCC(=O)N[C@@H](CCC(=O)NCCCC[C@H](NC(=O)[C@@H](NC(=O)[C@H](CC(C)C)NC(=O)[C@H](Cc1c[nH]c2ccccc12)NC(=O)[C@H](C)NC(=O)[C@@H](NC(=O)[C@H](Cc1ccccc1)NC(=O)[C@H](CCC(=O)O)NC(=O)[C@H](CCCNC(=N)N)NC(=O)[C@@H](NC(=O)[C@H](C)NC(=O)[C@H](CCC(=O)O)NC(=O)[C@H](CCCCN)NC(=O)[C@H](CCC(=O)O)NC(=O)[C@H](CCSC)NC(=O)[C@H](Cc1ccc(O)cc1)NC(=O)[C@@H](NC(=O)[C@H](CO)NC(=O)[C@H](Cc1ccc(O)cc1)NC(=O)[C@H](CC(=O)O)NC(=O)[C@H](CO)NC(=O)[C@@H](NC(=O)[C@H](Cc1ccccc1)NC(=O)[C@@H](NC(=O)CNC(=O)[C@H](CCC(=O)O)NC(=O)C(C)(C)NC(=O)[C@@H](N)Cc1ccc(O)cc1)[C@@H](C)O)[C@@H](C)O)[C@@H](C)CC)C(C)C)[C@@H](C)CC)C(C)C)C(=O)NCC(=O)NCC(=O)N1CCC[C@H]1C(=O)N[C@@H](CO)C(=O)N[C@@H](CO)C(=O)NCC(=O)N[C@@H](C)C(=O)N1CCC[C@H]1C(=O)N1CCC[C@H]1C(=O)N1CCC[C@H]1C(=O)N[C@@H](CO)C(N)=O)C(=O)O` [Compound 094], for which, on hGIPR, the response was half-maximal at 0.85 nM (EC50) and the “GIP Receptor Relative Potency” value came to 4.7. In addition, the EC50 on hGLP-1R (Table 3, CHO hGLP1R cells) was 0.67 nM. The “GLP-1 Receptor Relative Potency” value at hGLP-1R (Table 3) came to 149.2.
`CCCC[C@H](NC(=O)[C@@H](NC(=O)[C@@H](NC(=O)[C@H](CO)NC(=O)[C@H](Cc1ccc(O)cc1)NC(=O)[C@H](CC(=O)O)NC(=O)[C@H](CO)NC(=O)[C@@H](NC(=O)[C@H](Cc1ccccc1)NC(=O)[C@@H](NC(=O)CNC(=O)[C@H](CCC(=O)O)NC(=O)C(C)(C)NC(=O)[C@@H](N)Cc1ccc(O)cc1)[C@@H](C)O)[C@@H](C)O)[C@@H](C)CC)c1ccccc1)C(=O)N[C@@H](CCC(=O)O)C(=O)N[C@@H](CCCCN)C(=O)N[C@H](C(=O)N[C@@H](Cc1c[nH]cn1)C(=O)N[C@@H](CCC(N)=O)C(=O)N[C@@H](CCC(N)=O)C(=O)N[C@@H](CC(=O)O)C(=O)N[C@@H](Cc1ccccc1)C(=O)N[C@H](C(=O)N[C@@H](CC(N)=O)C(=O)N[C@@H](Cc1c[nH]c2ccccc12)C(=O)N[C@@H](CC(C)C)C(=O)N[C@@H](CC(C)C)C(=O)N[C@@H](C)C(=O)N[C@@H](CCC(N)=O)C(N)=O)C(C)C)[C@@H](C)CC` [Compound 009] (H-Y[Aib]EGTFTSDYSI[Phg][Nle]EKIHQQDFVNWLLAQ-NH2; N-terminus assumed) returned an EC50 on hGLP-1R of over 2000 nM.

For orientation: EC50 means the concentration at which the effect is half-maximal. High values mean a need for much substance, low ones an effect from little substance.
